Measured values from patent US20240124434A1, “ATF6 INHIBITORS AND USES THEREOF” (Altos Labs, Inc., priority 2018, published 2024).
In brackets after ≈: the same amount, converted by molar mass.

How the values were obtained:
ATF6 = test: ERSE ATF6-luciferase reporter assay (thapsigargin-induced ER stress); type: cell-based, human; conditions: Homo sapiens, U2OS, thapsigargin-induced ER stress, U2-OS ATF6 luc reporter cells; for inhibition at 1 µM: 8 h, read-out: Inh. ATF6-Luc @ 1 μM [%], 1 μM test compound, 8 hr; for IC50: read-out: IC50 ATF6-Luc reporter [μM], dose-response 30 μM to 1 nM
[1] = In vitro microsomal stability, human liver microsomes; type: in vitro ADME; conditions: for half-life at […], 1 µM / half-life at 1 μM: human, read-out: T1/2 @ hLM; for Rem. @ hLM (%): remaining fraction after 30 min, 1 μM compound, 0.5 mg/mL human liver microsomes, 1 mM NADPH
Description: (§1) Compounds were incubated at a final concentration of 1 μM with 0.5 mg/mL human liver microsomes (hLM) (#HMMCPL; Thermo), mouse liver microsomes (mLM) (#MSMCPL; Thermo) or rat liver microsomes (rLM) (#RTMCPL; Thermo) and 1 mM reduced dihydronicotinamide-adenine dinucleotide phosphate (NADPH) (#N1630; Sigma) in 100 mM phosphate buffer (pH 7.4) at 37° C. The reactions were terminated at 0, 5, 15 and 30 min by the addition of cold acetonitrile containing 50 ng/mL propranolol as an internal standard. […] Verapamil hydrochloride (#V4369 Aldrich) was used as a positive control in all studies.

[2] = In vitro microsomal stability, mouse liver microsomes; type: in vitro ADME; conditions: for half-life at 1 μM / half-life at […], 1 µM: mouse, read-out: T1/2 @ mLM; for Rem. @ mLM (%): remaining fraction after 30 min, 1 μM compound, 0.5 mg/mL mouse liver microsomes, 1 mM NADPH
Description: as §1

[3] = In vitro microsomal stability, rat liver microsomes; type: in vitro ADME; conditions: for microsomal CLint at […], 1 µM / half-life at 1 μM / half-life at […], 1 µM: pH 7.4, rat liver microsomes; for microsomal CLint at […], 1 µM: intrinsic clearance, read-out: Clint @ rLM; for half-life at 1 μM / half-life at […], 1 µM: rat, read-out: T1/2 @ rLM; for Rem. @ rLM (%): remaining fraction after 30 min, 1 μM compound, 0.5 mg/mL rat liver microsomes, 1 mM NADPH
Description: as §1

[4] = Kinetic solubility (nephelometry); type: physicochemical; conditions: aqueous buffer, kinetic from dmso stock; PBS pH 7.4, 1% DMSO, 1 hour at 37° C., light scattering at 625 nm
Description: Concentration (μM) was then calculated by segmental regression. Amiodarone (#A8423 Aldrich) was used as positive control.

CYP2B6 = CYP2B6 (Homo sapiens (Human), UniProt P20813); test: CYP inhibition in human liver microsomes; conditions: read-out: CYP-2B6; human liver microsomes; probe substrate bupropion
CYP2B6, sequence (P20813 whole entry, canonical isoform): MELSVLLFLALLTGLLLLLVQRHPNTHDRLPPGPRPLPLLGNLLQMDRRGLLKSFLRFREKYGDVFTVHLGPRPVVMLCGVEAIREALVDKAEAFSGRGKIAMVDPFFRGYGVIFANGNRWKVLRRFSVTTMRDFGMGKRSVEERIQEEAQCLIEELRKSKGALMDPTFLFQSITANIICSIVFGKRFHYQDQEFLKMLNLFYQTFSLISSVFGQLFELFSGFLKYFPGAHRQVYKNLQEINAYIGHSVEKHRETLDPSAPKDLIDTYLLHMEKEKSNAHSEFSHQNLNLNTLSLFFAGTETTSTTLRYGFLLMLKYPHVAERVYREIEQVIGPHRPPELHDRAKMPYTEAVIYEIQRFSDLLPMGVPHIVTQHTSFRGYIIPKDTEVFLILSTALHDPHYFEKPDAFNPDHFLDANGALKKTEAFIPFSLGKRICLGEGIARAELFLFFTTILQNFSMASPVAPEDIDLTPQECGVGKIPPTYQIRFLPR
Description: (§2) CYP inhibition by test compounds in human liver microsomes (HLM) for seven major CYP450 isoforms CYP1A2, CYP2C9, CYP2D6, CYP2B6, CYP2C8, CYP2C19 and CYP3A4 were assessed. […] 50 μM phenacetin, 2 μM midazolam, 5 μM diclofenac, 50 μM mephenytoin, 80 μM bupropion, and 5 μM dextromethorphan were used as probe substrates of CYP1A2, CYP3A4, CYP2C9, CYP2C19, CYP2B6, and CYP2D6, respectively. The incubation times were 20 min for […], CYP2D6, CYP2C9, CYP2B6, and CYP2C8; 40 min for CYP2C19; and 10 min for CYP 3A4. Following incubations, the reactions were terminated with acetonitrile containing internal standard. The samples were centrifuged and the supernatants were analyzed for the formation of metabolites (1-hydroxymidazolam (CYP3A4), 4-hydroxydiclofenac (CYP2C9), 4-hydroxymephenytoin (CYP2C19) and dextrorphan (CYP2D6), hydroxybupropion (CYP2B6), acetaminophen (CYP1A2), desethylamodiaquine (CYP2C8)) by LC/MS/MS.

CYP2C19 = CYP2C19 (Homo sapiens (Human), UniProt P33261); test: CYP inhibition in human liver microsomes; conditions: read-out: CYP-2C19; human liver microsomes; probe substrate mephenytoin
CYP2C19, sequence (P33261 whole entry): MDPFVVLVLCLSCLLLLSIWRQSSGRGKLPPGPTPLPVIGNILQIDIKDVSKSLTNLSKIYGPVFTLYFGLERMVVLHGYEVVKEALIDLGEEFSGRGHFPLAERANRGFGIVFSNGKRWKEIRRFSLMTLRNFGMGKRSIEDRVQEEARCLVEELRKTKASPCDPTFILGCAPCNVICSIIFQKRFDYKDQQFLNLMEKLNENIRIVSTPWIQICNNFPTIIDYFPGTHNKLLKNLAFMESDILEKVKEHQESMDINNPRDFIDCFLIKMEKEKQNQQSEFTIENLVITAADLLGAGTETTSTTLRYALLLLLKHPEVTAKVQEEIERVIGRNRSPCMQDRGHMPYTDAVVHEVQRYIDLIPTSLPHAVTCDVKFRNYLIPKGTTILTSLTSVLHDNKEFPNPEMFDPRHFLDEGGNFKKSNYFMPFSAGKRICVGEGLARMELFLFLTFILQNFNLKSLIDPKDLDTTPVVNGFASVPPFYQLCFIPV
Description: as §2

CYP2C8 = CYP2C8 (Homo sapiens (Human), UniProt P10632); test: CYP inhibition in human liver microsomes; conditions: read-out: CYP-2C8, metabolite desethylamodiaquine
CYP2C8, sequence (P10632 whole entry): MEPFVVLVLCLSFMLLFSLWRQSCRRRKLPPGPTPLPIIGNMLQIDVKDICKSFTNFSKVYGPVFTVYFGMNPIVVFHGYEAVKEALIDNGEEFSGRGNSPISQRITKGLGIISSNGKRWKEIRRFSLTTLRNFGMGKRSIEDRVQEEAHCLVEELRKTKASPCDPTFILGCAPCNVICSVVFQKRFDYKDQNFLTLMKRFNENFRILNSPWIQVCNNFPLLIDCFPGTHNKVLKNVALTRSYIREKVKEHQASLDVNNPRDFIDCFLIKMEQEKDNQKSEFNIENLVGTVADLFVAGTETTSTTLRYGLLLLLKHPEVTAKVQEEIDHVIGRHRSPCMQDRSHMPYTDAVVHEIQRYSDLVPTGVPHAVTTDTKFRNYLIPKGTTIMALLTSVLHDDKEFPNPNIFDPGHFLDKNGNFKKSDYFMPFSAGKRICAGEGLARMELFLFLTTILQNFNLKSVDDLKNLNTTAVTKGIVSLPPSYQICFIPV
Description: as §2

CYP2C9 = CYP2C9 (Homo sapiens (Human), UniProt P11712); test: CYP inhibition in human liver microsomes; conditions: read-out: CYP-2C9; human liver microsomes; probe substrate diclofenac
CYP2C9, sequence (P11712 whole entry): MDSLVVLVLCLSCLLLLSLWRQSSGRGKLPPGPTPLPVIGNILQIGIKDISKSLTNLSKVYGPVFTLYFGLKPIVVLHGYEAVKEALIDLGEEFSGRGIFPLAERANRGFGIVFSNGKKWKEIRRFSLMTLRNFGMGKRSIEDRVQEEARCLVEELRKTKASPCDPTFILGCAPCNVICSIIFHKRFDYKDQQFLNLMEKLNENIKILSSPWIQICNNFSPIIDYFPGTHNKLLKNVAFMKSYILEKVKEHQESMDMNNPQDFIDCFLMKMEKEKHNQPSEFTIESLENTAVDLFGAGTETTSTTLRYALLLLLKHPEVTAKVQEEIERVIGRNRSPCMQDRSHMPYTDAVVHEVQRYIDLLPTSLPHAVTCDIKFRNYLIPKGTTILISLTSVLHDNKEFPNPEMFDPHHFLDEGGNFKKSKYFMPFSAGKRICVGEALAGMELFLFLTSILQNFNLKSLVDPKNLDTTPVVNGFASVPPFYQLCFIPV
Description: as §2

CYP2D6 = CYP2D6 (Homo sapiens (Human), UniProt P10635); test: CYP inhibition in human liver microsomes; conditions: read-out: CYP-2D6; human liver microsomes; probe substrate dextromethorphan
CYP2D6, sequence (P10635 whole entry): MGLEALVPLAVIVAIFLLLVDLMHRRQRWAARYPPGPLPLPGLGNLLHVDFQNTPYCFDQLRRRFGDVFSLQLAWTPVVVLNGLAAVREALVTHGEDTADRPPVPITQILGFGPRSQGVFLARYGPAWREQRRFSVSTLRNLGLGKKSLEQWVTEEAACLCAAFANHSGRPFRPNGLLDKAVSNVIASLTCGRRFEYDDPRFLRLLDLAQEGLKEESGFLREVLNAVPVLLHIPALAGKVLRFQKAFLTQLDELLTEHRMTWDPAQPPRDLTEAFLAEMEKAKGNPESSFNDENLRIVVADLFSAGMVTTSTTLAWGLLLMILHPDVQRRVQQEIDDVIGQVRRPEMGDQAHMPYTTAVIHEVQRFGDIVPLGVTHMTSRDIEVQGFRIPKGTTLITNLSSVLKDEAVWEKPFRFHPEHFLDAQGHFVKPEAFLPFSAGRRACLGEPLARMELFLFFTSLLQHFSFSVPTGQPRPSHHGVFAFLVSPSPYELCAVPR
Description: as §2

CYP3A4 = CYP3A4 (Homo sapiens (Human), UniProt P08684); test: CYP inhibition in human liver microsomes; conditions: read-out: CYP-3A4; human liver microsomes; probe substrate midazolam
CYP3A4, sequence (P08684 whole entry): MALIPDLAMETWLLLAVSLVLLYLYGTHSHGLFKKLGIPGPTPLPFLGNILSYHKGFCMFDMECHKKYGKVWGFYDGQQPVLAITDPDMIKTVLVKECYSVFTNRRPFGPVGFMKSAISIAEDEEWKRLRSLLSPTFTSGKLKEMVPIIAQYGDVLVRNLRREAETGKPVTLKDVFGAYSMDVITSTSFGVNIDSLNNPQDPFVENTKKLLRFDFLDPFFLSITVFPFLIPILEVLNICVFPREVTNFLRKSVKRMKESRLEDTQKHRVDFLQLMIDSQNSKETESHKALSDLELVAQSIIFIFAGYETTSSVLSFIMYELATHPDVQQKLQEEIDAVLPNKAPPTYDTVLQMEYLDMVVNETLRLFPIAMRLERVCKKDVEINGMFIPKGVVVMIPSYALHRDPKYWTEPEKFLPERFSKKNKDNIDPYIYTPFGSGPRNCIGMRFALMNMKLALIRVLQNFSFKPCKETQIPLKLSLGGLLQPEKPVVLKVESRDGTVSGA
Description: as §2

[5] = mouse, in vivo, po, 10 mg/kg; for AUCExtr [%] / F [%] / Vz: Balb/c
Description: (§3) Tested compounds were formulated at 1 mg/mL as a dosing solution for oral administration in vehicle A: 10% dimethylacetamide (DMAC), 20% propylene glycol, and 40% PEG-400 or vehicle B: 10% Kolliphor® EL and 10% ethanol (EtOH).
(§4) Animals were acclimated for a minimum period of 4 days upon arrival at the testing facility.
(§5) At the day of study, mice were weighed, identified by marking the tail with numbers using a non-toxic permanent marker, and designated into ten experimental groups (n=3 per group).
(§6) Non-dosed mice were used to collect samples of zero time points. […] Blood samples were centrifuged immediately at 9,000 g at 4° C. for 5 minutes and then plasmas were separated. Plasma samples were placed into individually labeled cryovials and stored in a −80° C. freezer until LC/MS/MS bioanalysis.
(§7) The bioanalysis of plasma samples was conducted with a QTRAP 4500 triple quadrupole mass spectrometer (Applied Biosystems SCIEX) in the positive ion mode and interfaced with an Ekspert Ultra LC100 UPLC System (Eksigent). Calibration standards (0.01 to 10 μM) and QCs (0.02, 0.2 and 2.0 μM) were prepared from naïve mouse plasma in parallel with mouse plasma study samples (60 μL) by precipitation with three volumes of ice cold internal standard solution (acetonitrile containing 20 μM of theophylline). The precipitated samples were centrifuged at 6,100 g for 30 min. Following centrifugation, an aliquot of each supernatant was transferred to an autosampler plate and diluted with two volumes of aqueous mobile phase (0.1% formic acid in water). Samples were injected onto a reverse phase analytical column (YMC Triart C18; 2.0×50 mm; 1.9 μm; YMC CO) and eluted with a gradient of 0.1% formic acid in Acetonitrile. Assayed test compound and internal standards were monitored by a multiple reaction monitoring (MRM) experiment using an Analyst software (v1.6.2, Applied Biosystems SCIEX). Quantitation was conducted using a MultiQuant software (v2.1, Applied Biosystems SCIEX) and the resulting calibration curve was fitted with a linear regression and 1/x weighting. The lower limits of quantitation were 1<LLQ <5 ng/mL.

in vivo = conditions: Balb/c, mouse, po, 10 mg/kg
Description: as §3, §4, §5, §6, §7

[6] = pH 7.4, intrinsic clearance, human liver microsomes, read-out: Clint @ hLM
[7] = pH 7.4, intrinsic clearance, mouse liver microsomes, read-out: Clint @ mLM

| SMILES | inhibition at 1 µM (ATF6) [%] | IC50 (ATF6) [µM] | half-life at […], 1 µM ([1]; human liver microsomes, pH 7.4) [h] | microsomal CLint at […], 1 µM [1, 6] [µL/min/mg] | Rem. @ hLM (%) [1] [%] | half-life at 1 μM ([2]; mouse liver microsomes, pH 7.4) [h] | microsomal CLint at […], 1 µM [2, 7] [µL/min/mg] | Rem. @ mLM (%) [2] [%] | microsomal CLint at […], 1 µM [3] [µL/min/mg] | half-life at 1 μM [3] [h] | Rem. @ rLM (%) [3] [%] | solubility kinetic at 1 h [4] [µM] | IC50 (CYP2B6) [µM] | IC50 (CYP2C19) [µM] | IC50 (CYP2C8) [µM] | IC50 (CYP2C9) [µM] | IC50 (CYP2D6) [µM] | IC50 (CYP3A4) [µM] | also measured |
| --- | --- | --- | --- | --- | --- | --- | --- | --- | --- | --- | --- | --- | --- | --- | --- | --- | --- | --- | --- |
| O=C(Nc1cnn(Cc2ccc(C(F)(F)F)cc2C(F)(F)F)c1)c1cc(-c2ccccn2)on1 [Compound 11, N-(1-(2,4-bis(trifluoromethyl)benzyl)-1H-pyrazol-4-yl)-5-(pyridin-2-yl)isoxazole-3-carboxamide] | > 50 | < 1 | 1.12 | 21 | 73.5 | 0.422 | 55 | 40.8 | 44 | 0.522 | 44.8 | 9.41 (≈ 4.53 µg/mL) | 16.9 | 9.85 | 1.09 | 7.77 | > 50 | > 50 | AUCExtr [%] [5]: 5.07%; F [%] [5]: 48.6%; Vz [5]: 8.74 L/kg; Last time point for AUClast [5]: 24 h; AUC(0-inf) (in vivo): 10300 ng·h/mL; AUC(0-t) (in vivo): 9780 ng·h/mL; Cmax (in vivo): 2270 ng/mL; Tmax (in vivo): 0.25 h; half-life (in vivo): 6.24 h |
| Cc1c(NC(=O)c2cc(-c3ccco3)on2)cnn1Cc1ccc(C(F)(F)F)cc1C(F)(F)F [Compound 93, N-(1-(2,4-bis(trifluoromethyl)benzyl)-5-methyl-1H-pyrazol-4-yl)-5-(furan-2-yl)isoxazole-3-carboxamide] | > 50 | < 1 | 1.27 | 18.2 | 74.1 | 0.667 | 34.7 | 51.1 | 20.2 | 1.15 | 69.8 | 2.92 (≈ 1.41 µg/mL) | > 50 | > 50 | > 50 | > 50 | > 50 | > 50 |  |
| Cc1nn([C@H](C)c2ccc(C(F)(F)F)cc2C(F)(F)F)cc1NC(=O)c1cc(-c2ccccn2)on1 [Compound 99, (R)—N-(1-(1-(2,4-bis(trifluoromethyl)phenyl)ethyl)-3-methyl-1H-pyrazol-4-yl)-5-(pyridin-2-yl)isoxazole-3-carboxamide] | 25 to 50 | 1 to 10 |  | 39.2 | 49.2 |  | 85.2 | 29.2 | 28.3 | 0.817 | 60.9 | 2.34 (≈ 1.19 µg/mL) | 4.8 | 8.8 | 1 | 2.5 | 32 | > 50 | half-life at 1 μM ([1]; human liver microsomes, pH 7.4): 0.59 h; half-life at […], 1 µM ([2]; mouse liver microsomes, pH 7.4): 0.272 h |
| C[C@H](c1ccc(C(F)(F)F)cc1C(F)(F)F)n1cc(NC(=O)c2cn(-c3ccccn3)nn2)cn1 [Compound 121, (R)—N-(1-(1-(2,4-bis(trifluoromethyl)phenyl)ethyl)-1H-pyrazol-4-yl)-1-(pyridine-2-yl)-1H-1,2,3-triazole-4-carboxamide] | 25 to 50 | < 1 | 2.22 | 10.4 | 84.4 | 0.873 | 26.4 | 62.5 | 23.9 | 0.968 | 64.5 | 3.51 (≈ 1.74 µg/mL) | 23.6 | 2.9 | 30.5 | > 45.9 | 35.5 | > 50 |  |
| O=C(Nc1cnn(Cc2ccc(C(F)(F)F)cc2C(F)(F)F)c1)c1cc(-c2ncccn2)on1 [Compound 129, N-(1-(2,4-bis(trifluoromethyl)benzyl)-1H-pyrazol-4-yl)-5-(pyrimidin-2-yl)isoxazole-3-carboxamide] | > 50 | < 1 |  |  | 68.0 | 1.04 |  | 67.9 | 12 |  | 84.5 |  | > 50 | > 50 | > 50 | > 50 | > 50 | > 50 | half-life at 1 μM ([1]; human liver microsomes, pH 7.4): 1.05 h; microsomal CLint at 1 μM [1, 6]: 22 µL/min/mg; microsomal CLint at 1 μM [2, 7]: 22 µL/min/mg; half-life at […], 1 µM [3]: 1.9 h |
| C[C@H](c1ccc(C(F)(F)F)cc1C(F)(F)F)n1cc(NC(=O)c2cc(-c3cnccn3)on2)cn1 [Compound 131, (R)—N-(1-(1-(2,4-bis(trifluoromethyl)phenyl)ethyl)-1H-pyrazol-4-yl)-5-(pyrazin-2-yl)isoxazole-3-carboxamide] | > 50 | < 1 |  |  |  |  |  |  |  |  |  |  | 44.5 | 16.4 | 43.3 | > 50 | > 50 | > 50 | AUCExtr [%] [5]: 7.75%; F [%] [5]: 85.9%; Vz [5]: 0.831 L/kg; Last time point for AUClast [5]: 24 h; AUC(0-inf) (in vivo): 107000 ng·h/mL; AUC(0-t) (in vivo): 98700 ng·h/mL; Cmax (in vivo): 7030 ng/mL; Tmax (in vivo): 6 h; half-life (in vivo): 6.16 h |
| C[C@H](c1ccc(C(F)(F)F)cc1C(F)(F)F)n1cc(NC(=O)c2nnc(-c3cnccn3)s2)cn1 [Compound 152, (R)—N-(1-(1-(2,4-bis(trifluoromethyl)phenyl)ethyl)-1H-pyrazol-4-yl)-5-(pyrazin-2-yl)-1,3,4-thiadiazole-2-carboxamide] | > 50 | < 1 | 2.32 | 10 | 84.4 |  | 10.9 | 82.6 | 7.2 |  | 86.4 | 28.1 (≈ 14.4 µg/mL) | > 50 | > 50 | > 50 | > 50 | > 50 | > 50 | half-life at […], 1 µM ([2]; mouse liver microsomes, pH 7.4): 2.12 h; half-life at […], 1 µM [3]: 3.2 h |
